Reference: patent EP4471049A1 (Zealand Pharma A/S, priority 2023, dated 2024)
Like-named read-outs stand apart in the source and are kept apart here. *1 amine or outer side, *2 acyl side, *3 side chain or, on linkers, in order; H or OH if unused. Bridges are numbered along the chain shown (N, C = ends). Primed or numbered codes have the meaning given here. [ ]: non-standard residue; d: D form. 4‑Aminomethyl‑phenylacetyl = 4-aminomethyl-phenylacetyl unit, its amine closes the lactam, O=C(Cc1ccc(CN[*:1])cc1)[*:2]; Q(pyrrolidin)″ = (2S)-2-amino-5-oxo-5-pyrrolidin-1-yl-pentanoic acid, O=C(CC[C@H](N[*:1])C(=O)[*:2])N1CCCC1; αMeAla(3-pyridyl) = C[C@](N)(Cc1cccnc1)C(=O)O; 2Nal = N[C@@H](Cc1ccc2ccccc2c1)C(=O)O; AEF = NCCOc1ccc(C[C@H](N)C(=O)O)cc1; αMeL = CC(C)C[C@](C)(N)C(=O)O; Iso‑Dab = not defined here; Dab = NCC[C@H](N)C(=O)O

T1: human IL-23R endogenously expressed on DB cells (human, UniProt Q5VWK5 24-629)
T1 sequence (looked up): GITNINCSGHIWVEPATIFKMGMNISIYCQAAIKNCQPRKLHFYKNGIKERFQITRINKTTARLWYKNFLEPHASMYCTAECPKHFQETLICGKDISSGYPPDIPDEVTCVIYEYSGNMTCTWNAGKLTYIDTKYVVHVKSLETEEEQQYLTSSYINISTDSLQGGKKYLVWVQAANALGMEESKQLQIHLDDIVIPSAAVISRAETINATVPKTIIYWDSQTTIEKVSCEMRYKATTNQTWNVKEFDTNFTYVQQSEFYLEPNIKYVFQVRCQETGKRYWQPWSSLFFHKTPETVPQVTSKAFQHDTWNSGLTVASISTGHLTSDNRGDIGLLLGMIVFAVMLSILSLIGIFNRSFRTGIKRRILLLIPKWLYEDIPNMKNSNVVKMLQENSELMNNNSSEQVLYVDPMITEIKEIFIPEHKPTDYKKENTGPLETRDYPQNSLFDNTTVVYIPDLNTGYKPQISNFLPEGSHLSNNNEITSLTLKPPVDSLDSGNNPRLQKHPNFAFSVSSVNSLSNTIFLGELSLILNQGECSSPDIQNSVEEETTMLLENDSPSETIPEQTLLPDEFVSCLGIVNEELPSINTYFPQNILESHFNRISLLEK

T2: Nluc-IL23R fusion protein (human, UniProt Q5VWK5 22-629)
T2 construct: range 22-629; expressed with a secretion signal in HEK293 cells; used as crude membrane preparation; also called hIL-23R; human IL-23R; not shown: Nanoluc protein from the expression plasmid N1371 (Promega), N-terminal of IL-23R
T2 sequence (looked up): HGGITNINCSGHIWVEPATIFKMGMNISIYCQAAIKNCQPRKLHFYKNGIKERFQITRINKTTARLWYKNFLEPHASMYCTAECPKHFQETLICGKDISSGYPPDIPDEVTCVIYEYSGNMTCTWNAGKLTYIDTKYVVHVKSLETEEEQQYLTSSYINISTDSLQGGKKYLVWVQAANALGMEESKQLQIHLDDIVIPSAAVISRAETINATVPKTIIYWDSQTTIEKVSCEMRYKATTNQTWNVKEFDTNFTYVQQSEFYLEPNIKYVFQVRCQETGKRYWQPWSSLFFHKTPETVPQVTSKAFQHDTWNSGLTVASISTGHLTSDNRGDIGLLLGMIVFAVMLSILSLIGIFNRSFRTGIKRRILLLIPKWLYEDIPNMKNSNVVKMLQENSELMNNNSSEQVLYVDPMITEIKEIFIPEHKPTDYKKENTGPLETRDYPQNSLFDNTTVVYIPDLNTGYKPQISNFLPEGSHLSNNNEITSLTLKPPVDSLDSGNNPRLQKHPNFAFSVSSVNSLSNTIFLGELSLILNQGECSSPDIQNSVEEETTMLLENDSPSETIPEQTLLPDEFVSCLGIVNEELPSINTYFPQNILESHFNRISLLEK


Assays:
[1] = tested on: porcine pepsin (P7125, Sigma Aldrich); experiment: SGF: sodium chloride, HCl, pH 1.2, with porcine pepsin (3.2 g/L); conditions: 37 °C, up to 4 hours
[2] = tested on: porcine pancreatin (P1625, Sigma Aldrich); experiment: SIF: monobasic potassium phosphate, pH 6.8, with porcine pancreatin (10 g/L); conditions: 37 °C, up to 4 hours
[3] = target: T1, human IL-23R endogenously expressed on …; experiment: cell-based or functional assay
[4] = target: T2, Nluc-IL23R fusion protein; experiment: BRET competition vs TAMRA-labelled peptide, Nluc-IL23R membranes
[5] = target: T2, Nluc-IL23R fusion protein; experiment: as above; remark: listed apart in the source

Molecule | not cleaved [1] | not cleaved [2] | further results
[4-Aminomethyl-phenylacetyl](1c)*AE(2c)WQ[Dab](2c)[7-AzaTrp][2-Nal][Aib]E(1c)[Dab][3-(3-Pyridyl)-Ala] | 98% remaining after 4 h | 92% remaining after 4 h | –
[4-Aminomethyl-phenylacetyl](1c)*SE(2c)W[Q(Me)][Dab](2c)[Y(2-aminoethoxy)][2-Nal][2-Me-Leu]E(1c)[Dab][3-(3-Pyridyl)-Ala] | 90% remaining after 4 h | 92% remaining after 4 h | –
[4-Aminomethyl-phenylacetyl](1c)*AE(2c)WQ[Dab](2c)[Y(2-aminoethoxy)][2-Nal][2-Me-Leu]E(1c)[Dab][3-(3-Pyridyl)-Ala]-[NHMe] | 103% remaining after 4 h | 90% remaining after 4 h | –
[4-Aminomethyl-phenylacetyl](1c)*AE(2c)WQ[Dab](2c)[7-F-Trp][2-Nal][Aib]E(1c)[Dab][3-(3-Pyridyl)-Ala] | – | 92% remaining after 4 h | –
[4-Aminomethyl-phenylacetyl](1c)*SE(2c)WQ[Dab](2c)[Y(2-aminoethoxy)][2-Nal][2-Me-Leu]E(1c)S[3-(3-Pyridyl)-Ala] | 99% remaining after 4 h | – | –
[4-Aminomethyl-phenylacetyl](1c)*FE(2c)WQ[Dab](2c)[Y(2-aminoethoxy)][2-Nal][2-Me-Leu]E(1c)[Dab][3-(3-Pyridyl)-Ala] | 101% remaining after 4 h | – | –
[Ac]-[Abu](16i)QTWQC(16i)[Y(2-aminoethoxy)]W[2-Me-Lys]ENG-[NH2] | 100% remaining after 4 h | – | –
[4-Aminomethyl-phenylacetyl](1c)*SE(2c)WQ[Dab](2c)[Y(2-aminoethoxy)][2-Nal][2-Me-Leu]E(1c)[Dab][3-(3-Pyridyl)-Ala][Sar]-[NH2] | 95% remaining after 4 h | 105% remaining after 4 h | –
[4-Aminomethyl-phenylacetyl](1c)*SE(2c)WQ[Dab](2c)[Y(2-aminoethoxy)][2-Nal][2-Me-Leu]E(1c)H[3-(3-Pyridyl)-Ala] | 95% remaining after 4 h | – | –
[4-Aminomethyl-phenylacetyl](1c)*SE(2c)WQ[Dab](2c)[Y(2-aminoethoxy)][2-Nal][2-Me-Leu]E(1c)[Dab][2-Me-3-(3-Pyridyl)-Ala]-[NH2] | 104% remaining after 4 h | 109% remaining after 4 h | –
[4-Aminomethyl-phenylacetyl](1c)*SE(2c)WQ[Dab](2c)[Y(2-aminoethoxy)][2-Nal][2-Me-Leu]E(1c)[Dab][3-(3-Pyridyl)-Ala]-[NHMe] | – | 105% remaining after 4 h | –
[4-Aminomethyl-phenylacetyl](1c)*SE(2c)WQ[Dab](2c)[Y(2-aminoethoxy)][2-Nal][2-Me-Leu]E(1c)[Nle][3-(3-Pyridyl)-Ala] | 90% remaining after 4 h | – | –
[4-Aminomethyl-phenylacetyl](1c)*SE(2c)WQ[Dab](2c)[Y(2-aminoethoxy)][2-Nal][2-Me-Leu]E(1c)[{d}S][3-(3-Pyridyl)-Ala] | 91% remaining after 4 h | – | –
[4-Aminomethyl-phenylacetyl](1c)*SE(2c)WQ[Dab](2c)[Y(2-aminoethoxy)][2-Nal][2-Me-Leu]E(1c)[Dab]H[3-(3-Pyridyl)-Ala]-[NH2] | 93% remaining after 4 h | – | –
[4-Aminomethyl-phenylacetyl](1c)*SE(2c)W[Cit][Dab](2c)[Y(2-aminoethoxy)][2-Nal][2-Me-Leu]E(1c)[Dab][3-(3-Pyridyl)-Ala] | 99% remaining after 4 h | 91% remaining after 4 h | –
[4-Aminomethyl-phenylacetyl](1c)*SE(2c)W[Orn][Dab](2c)[Y(2-aminoethoxy)][2-Nal][2-Me-Leu]E(1c)[Dab][3-(3-Pyridyl)-Ala] | 110% remaining after 4 h | 110% remaining after 4 h | –
[4-Aminomethyl-phenylacetyl](1c)*SE(2c)WQ[Dab](2c)[Y(2-aminoethoxy)][2-Nal][2-Me-Leu]E(1c)[Dab][3-(3-Pyridyl)-Ala][beta-hLeu]-[NH2] | 97% remaining after 4 h | 102% remaining after 4 h | –
[4-Aminomethyl-phenylacetyl](1c)*SE(2c)WQ[Dab](2c)[Y(2-aminoethoxy)][2-Nal][2-Me-Leu]E(1c)[THP][3-(3-Pyridyl)-Ala] | 94% remaining after 4 h | 96% remaining after 4 h | –
[4-Aminomethyl-phenylacetyl](1c)*SE(2c)W[Q(2Me)][Dab](2c)[Y(2-aminoethoxy)][2-Nal][2-Me-Leu]E(1c)[Dab][3-(3-Pyridyl)-Ala] | – | 94% remaining after 4 h | –
[4-Aminomethyl-phenylacetyl](1c)*SE(2c)W[K(Ac)][Dab](2c)[Y(2-aminoethoxy)][2-Nal][2-Me-Leu]E(1c)[Dab][3-(3-Pyridyl)-Ala] | 90% remaining after 4 h | – | –
[4-Aminomethyl-phenylacetyl](1c)*AE(2c)WQ[Dab](2c)[hPhe][2-Nal][Aib]E(1c)[Dab][3-(3-Pyridyl)-Ala] | 102% remaining after 4 h | 95% remaining after 4 h | –
H-EC(4a)WLC(5a)YYRNC(5a)NC(4a)M-[NH2] | 99% remaining after 4 h | – | –
[4-Aminomethyl-phenylacetyl](1c)*SE(2c)WQ[Dab](2c)[Y(2-aminoethoxy)][2-Nal][2-Me-Leu]E(1c)[2-Me-Ser][3-(3-Pyridyl)-Ala] | 96% remaining after 4 h | – | –
[4-Aminomethyl-phenylacetyl](1c)*SE(2c)W[Dab(Ac)][Dab](2c)[Y(2-aminoethoxy)][2-Nal][2-Me-Leu]E(1c)[Dab][3-(3-Pyridyl)-Ala] | – | 91% remaining after 4 h | –
[4-Aminomethyl-phenylacetyl](1c)*SE(2c)WQ[Dab](2c)[Y(2-aminoethoxy)][2-Nal][2-Me-Leu]E(1c)[Dab][3-(3-Pyridyl)-Ala]-[NH2] | 90% remaining after 4 h | – | cleaved bond [2]: Dab12-3Pal13, major
H-ECWLCYYRNCNCM-NH2 (linker 5-10, 2-12 via 1,3‑dithio‑propan‑2‑one, compound from Heinis et al., 2020, synthesised for comparison) [I4 (isomer 3)] | – | – | hIL-23 (pSTAT3) antagonist % inhibition [3]: 23%; % displacement (hIL-23R binding) [4]: 84%
[4‑Aminomethyl‑phenylacetyl]SEWQ[Dab][AEF][2Nal][αMeL]E[Dab][H(Me)]-NH2 (lactam N-10, 3-6) [Compound 14] | – | – | hIL-23 (pSTAT3) antagonist % inhibition [3]: 99%; hIL-23 (pSTAT3) antagonist IC50 [3]: 7.2 nM; % displacement (hIL-23R binding) [5]: 102%; IC50 [5]: 110 pM
[4‑Aminomethyl‑phenylacetyl]SEWQ[Dab][AEF][2Nal][αMeL]E[Iso‑Dab][αMeAla(3-pyridyl)]-NH2 (lactam N-10, 3-6; reading uncertain; also: iso-Dab11 joined via side-chain amine) [Compound 15] | – | – | hIL-23 (pSTAT3) antagonist % inhibition [3]: 97%; hIL-23 (pSTAT3) antagonist IC50 [3]: 12 nM; % displacement (hIL-23R binding) [5]: 96%
[4‑Aminomethyl‑phenylacetyl]SEW[Q(pyrrolidin)″][Dab][AEF][2Nal][αMeL]E[Dab]-NH2 (lactam N-10, 3-6) [Ref 146] | – | – | hIL-23 (pSTAT3) antagonist % inhibition [3]: 98%; hIL-23 (pSTAT3) antagonist IC50 [3]: 42 nM; % displacement (hIL-23R binding) [5]: 105%
